Measured values as given in publication PMC5760531, “Action Potential Recording and Pro-arrhythmia Risk Analysis in Human Ventricular Trabeculae” (Frontiers in Physiology, 2018).

Test system: human ventricular trabeculae
Test: Action potential recording and pro-arrhythmic score analysis in human ventricular trabeculae (hVT);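 note: sharp microelectrode action potential recordings at 37°C in Tyrode-perfused trabeculae, 4 cumulative concentrations each applied 31 min, values averaged over last 30 APs, vehicle 0.1% DMSO as control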
[1] = 1Hz, 100-FOLD free ETPC (0.003µM)
[2] = 2Hz, 0.1-FOLD free ETPC (0.003µM)
[3] = 2Hz, 1-FOLD free ETPC (0.003µM)
[4] = 2Hz, 10-FOLD free ETPC (0.003µM)
[5] = 2Hz, 100-FOLD free ETPC (0.003µM)

Experimental: Briefly, the human heart was transferred into a dissection vessel containing a cold (4°C), fresh proprietary dissection solution. The heart was maintained completely submerged in dissection solution. Ventricular trabeculae were dissected and transferred to the recording chamber.
Briefly, a single tissue was mounted into the experimental chamber filled with oxygenated Tyrode's external solution. The temperature of the solution was maintained at 37°C with flow rate at 5 mL per minute. The tissue was allowed to equilibrate for 30–60 min with stimulation (3 V, 3 ms) at a frequency of 1.0 Hz. High impedance borosilicate microelectrodes were prepared with a tip resistance of 10–20 MΩ once filled with 3 M KCl. Upon tissue impalement, the membrane potential was allowed to stabilize (typically, around −85 mV). Tissues with resting membrane potentials more positive than −75 mV were rejected. Bipolar stimulation at 1.5x threshold was applied and recordings were performed in continuous mode with sampling at 20 kHz using ADInstruments and LabChart Software.
Interruption of perfusion/oxygenation; (2). Absence of Aps following stimulation at baseline; (3). Time frame of drug exposure not respected; (4). Unstable response to stimulation at baseline; (5). Resting membrane potential (RMP) > −75 mV; 7). Maximal amplitude of AP (AMAX) <70 mV; 8). AP duration at 90% repolarization (APD90) <200 ms or >450 ms.
Experimental Procedure: Each test article was evaluated at 4 concentrations in 4 ventricular trabeculae derived from a minimum of 2 donor hearts. Testing concentrations were chosen based upon human free ETPC, aiming to cover 1–100-fold of human free ETPC. […] Briefly, following stabilization of each tissue, APs were collected and assessed for 31 min in vehicle control solution (Tyrode with 0.1% DMSO) at stimulation frequencies of 1 Hz for 25 min, 2 Hz for 3 min and then 1 Hz for 3 min. Following this vehicle control period, 4 concentrations of a test compound were applied sequentially and cumulatively. Each concentration was applied for 31 min with the same stimulation sequence as in vehicle controls.
For each frequency tested, the last 30 APs acquired at the end of the period were averaged for vehicle controls and for each test article concentration. Analysis at 1 Hz included only the last 30 APs of the initial 25-min incubation period. The following AP parameters and pro-arrhythmia variables were analyzed offline upon the completion of recordings:
• RMP (mV) • AMAX (mV) • AP duration at percent repolarization (APD20, APD30, APD50, APD60, APD90) (ms) • Short term variability analysis of AP duration (STV): Beat-to-beat variability of repolarization was quantified as STV from APD90 Poincare plots over a period of 30 sec.
Compound effects were quantified relative to the data collected during the vehicle control period (see Figure 1). […] Additionally, based on AnaBios historical data, threshold values for changes over baseline control for AP instability, APD alternans, Maximum APD dispersion and ERP (APD) were based upon an effect level of 10%. When applicable, differences were tested for statistical significance using the unpaired Student's t-test. A value of P < 0.05 was considered significant.
AP parameters and pro-arrhythmia variables were combined into a meaningful, single score to assess the pro-arrhythmic risk of a compound at each concentration tested. The pro-arrhythmic potential of compounds at 1 or 2 Hz was determined by assigning a weighted scale to each variable (Table 1).

SMILES: COc1cc(N)c(Cl)cc1C(=O)NC1CCN(CCCOc2ccc(F)cc2)CC1OC (stereo not shown) [CISAPRIDE, Cisapride]
- STV percentage change compared to vehicle control [1]: 3%
- Triangulation [1]: 154
- Triangulation percentage change compared to vehicle control [1]: 17%
- AMAX [2]: 110
- AMAX percentage change compared to vehicle control [2]: -2%
- APD30 [2]: 114
- APD30 percentage change compared to vehicle control [2]: -10%
- APD50 [2]: 157
- APD50 percentage change compared to vehicle control [2]: -8%
- APD90 [2]: 228
- APD90 percentage change compared to vehicle control [2]: -6%
- Alternans [2]: 0.98
- Alternans percentage change compared to vehicle control [2]: 18%
- Beat Escape [2]: 0
- Beat Escape percentage change compared to vehicle control [2]: 0%
- EADs [2]: 0
- EADs percentage change compared to vehicle control [2]: 0%
- ERP [2]: 0.47
- ERP percentage change compared to vehicle control [2]: 1%
- Max Dispersion [2]: 4.08
- Max Dispersion percentage change compared to vehicle control [2]: 3%
- RMP [2]: -94
- RMP percentage change compared to vehicle control [2]: 0%
- Refractoriness Escape [2]: 0
- Refractoriness Escape percentage change compared to vehicle control [2]: 0%
- STV [2]: 0.76
- Triangulation [2]: 114
- Triangulation percentage change compared to vehicle control [2]: -2%
- AMAX [3]: 109
- AMAX percentage change compared to vehicle control [3]: -3%
- APD30 [3]: 115
- APD30 percentage change compared to vehicle control [3]: -10%
- APD50 [3]: 156
- APD50 percentage change compared to vehicle control [3]: -10%
- APD90 [3]: 225
- APD90 percentage change compared to vehicle control [3]: -8%
- Alternans [3]: 0.99
- Alternans percentage change compared to vehicle control [3]: 20%
- Beat Escape [3]: 0
- Beat Escape percentage change compared to vehicle control [3]: 0%
- EADs [3]: 0
- EADs percentage change compared to vehicle control [3]: 0%
- ERP [3]: 0.46
- ERP percentage change compared to vehicle control [3]: 1%
- Max Dispersion [3]: 4.38
- Max Dispersion percentage change compared to vehicle control [3]: 10%
- RMP [3]: -94
- RMP percentage change compared to vehicle control [3]: 0%
- Refractoriness Escape [3]: 0
- Refractoriness Escape percentage change compared to vehicle control [3]: 0%
- STV [3]: 0.66
- Triangulation [3]: 110
- Triangulation percentage change compared to vehicle control [3]: -6%
- AMAX [4]: 114
- AMAX percentage change compared to vehicle control [4]: 1%
- APD30 [4]: 110
- APD30 percentage change compared to vehicle control [4]: -13%
- APD50 [4]: 157
- APD50 percentage change compared to vehicle control [4]: -9%
- APD90 [4]: 231
- APD90 percentage change compared to vehicle control [4]: -5%
- Alternans [4]: 0.63
- Alternans percentage change compared to vehicle control [4]: -24%
- Beat Escape [4]: 0
- Beat Escape percentage change compared to vehicle control [4]: 0%
- EADs [4]: 0
- EADs percentage change compared to vehicle control [4]: 0%
- ERP [4]: 0.50
- ERP percentage change compared to vehicle control [4]: 10%
- Max Dispersion [4]: 2.55
- Max Dispersion percentage change compared to vehicle control [4]: -36%
- RMP [4]: -100
- RMP percentage change compared to vehicle control [4]: 6%
- Refractoriness Escape [4]: 0
- Refractoriness Escape percentage change compared to vehicle control [4]: 0%
- STV [4]: 0.45
- Triangulation [4]: 122
- Triangulation percentage change compared to vehicle control [4]: 4%
- AMAX [5]: 114
- AMAX percentage change compared to vehicle control [5]: 2%
- APD30 [5]: 114
- APD30 percentage change compared to vehicle control [5]: -10%
- APD50 [5]: 168
- APD50 percentage change compared to vehicle control [5]: -3%
- APD90 [5]: 254
- APD90 percentage change compared to vehicle control [5]: 4%
- Alternans [5]: 0.75
- Alternans percentage change compared to vehicle control [5]: -9%
- Beat Escape [5]: 0
- Beat Escape percentage change compared to vehicle control [5]: 0%
- EADs [5]: 0
- EADs percentage change compared to vehicle control [5]: 0%
- ERP [5]: 0.52
- ERP percentage change compared to vehicle control [5]: 13%
- Max Dispersion [5]: 3.75
- Max Dispersion percentage change compared to vehicle control [5]: -6%
- RMP [5]: -101
- RMP percentage change compared to vehicle control [5]: 7%
- Refractoriness Escape [5]: 0
- Refractoriness Escape percentage change compared to vehicle control [5]: 0%
- STV [5]: 0.56
- Triangulation [5]: 140
- Triangulation percentage change compared to vehicle control [5]: 20%
